Assay results published in article PMC3858267, “The Enhanced In Vivo Activity of the Combination of a MEK and a PI3K Inhibitor Correlates with [^18F]-FLT PET in Human Colorectal Cancer Xenograft Tumour-Bearing Mice” (PLoS ONE, 2013).
Like-named read-outs stand apart in the source and are kept apart here. Marks after values point to notes of the source that are not given here.

Experiments:
phospho-4EBP1 (Thr37/46) = assay: PD Western blot of HCT116 tumour lysates: 4EBP1 phosphorylation; type: in vivo, mice; conditions: 0.25–24 hours after single p.o. dose; 1 mg/kg PD 0325901, 100 mg/kg GDC-0941 or combination (combination compared to single agent PI3K inhibitor)
phospho-Akt (Ser473) = assay: PD Western blot of HCT116 tumour lysates: AKT phosphorylation; type: in vivo, mice; conditions: 0.25–24 hours after single p.o. dose; 1 mg/kg PD 0325901, 100 mg/kg GDC-0941 or combination (combination compared to single agent PI3K inhibitor)
Method: (§1) Blood was collected into heparinised tubes, and plasma was separated and stored at −20°C until analysed. Tumours were removed, snap frozen in liquid nitrogen and stored at −80°C prior to PK and PD analyses, as described below.
For PD analyses, tumours (2 to 4∼2.5 mm^3 pieces) were disaggregated in 1 ml PhosphoSafe™ extraction reagent (Merck Chemicals Ltd, Nottingham, Nottinghamshire, UK) containing a protease inhibitor cocktail (Pierce, Thermo Scientific, Rockford, Illinois, USA) at the manufacturer's recommended dilution using a Medimachine™ (BD Biosciences, Oxford, UK), centrifuged, and the supernatant removed and analysed by Western blotting. […] Antibody binding was detected by incubation with a HRP-conjugated goat anti-rabbit polyclonal antibody (Dako, Glastrop, Denmark).

[1] = set-up: method as in PMID 18754654, PMID 21838594; conditions: in mice; cited from earlier work
[2] = tested on: phospho-p44/42 MAPK (Thr202/Tyr204) (ERK1/2); assay: PD Western blot of HCT116 tumour lysates: ERK1/2 phosphorylation; type: in vivo, mice; conditions: 0.25–24 hours after single p.o. dose; 100 mg/kg GDC-0941 alone or with 1 mg/kg PD 0325901 (combination compared to single agent MEK inhibitor)
Method: as §1
For PD analyses, tumours (2 to 4∼2.5 mm^3 pieces) were disaggregated in 1 ml PhosphoSafe™ extraction reagent (Merck Chemicals Ltd, Nottingham, Nottinghamshire, UK) containing a protease inhibitor cocktail (Pierce, Thermo Scientific, Rockford, Illinois, USA) at the manufacturer's recommended dilution using a Medimachine™ (BD Biosciences, Oxford, UK), centrifuged, and the supernatant removed and analysed by Western blotting. Proteins were resolved on Novex® 4–12% (w/w) Tris-glycine gels (Invitrogen Ltd, Renfrew, Paisley, UK) and electrotransferred onto Hybond C nitrocellulose membrane (GE Healthcare Life Sciences, Hatfield, Hertfordshire, UK). Membranes were incubated with phospho-4EBP1 (Thr37/46) (#2855), phospho-p44/42 MAPK (Thr202/Tyr204) (#4370), phospho-Akt (Ser473) (#4060) or phospho-S6 ribosomal protein (Ser235/236) (#4858) monoclonal antibodies obtained from Cell Signalling Technology (New England BioLabs (UK) Ltd, Hitchin, Hertfordshire, UK). Antibody binding was detected by incubation with a HRP-conjugated goat anti-rabbit polyclonal antibody (Dako, Glastrop, Denmark). Blots were developed using Pierce ECL (enhanced chemiluminescence) western blotting substrate (Thermo Scientific, Rockford, Illinois, USA), or SuperSignal® West Dura extended duration substrate (Thermo Scientific, Rockford, Illinois, USA), and Kodak X-ray film (Genetic Research Instrumentation Ltd, Braintree, Essex, UK) on a MediPhot 937 film developer (Colenta, Weiner Neustadt, Austria), then digitally scanned.

HCT116 cells = tested on: HCT116 cells; set-up: method as in PMID 22415236; conditions: previously determined; read-out: in vitro GI50; cited from earlier work
[3] = tested on: HCT116 human tumour xenografts; assay: Anti-tumour activity (time to RTV3/RTV4) in HCT116 human tumour xenografts; type: in vivo, mice; conditions: 1 mg/kg PD 0325901, 100 mg/kg GDC-0941, alone or in combination, p.o. once daily for 14 days
Method: (§2) Animal studies were all carried out using female athymic CD1 nude mice (Charles River, Kent, UK), implanted with HCT116 or HT29 xenografts (1×10^7 cells in 50 µl media injected subcutaneously into the right flank), maintained and handled in isolators under specific pathogen-free conditions.

[4] = tested on: phospho-S6 ribosomal protein (Ser235/236); assay: PD Western blot of HCT116 tumour lysates: S6 phosphorylation; type: in vivo, mice; conditions: 0.25–24 hours after single p.o. dose; 1 mg/kg PD 0325901, 100 mg/kg GDC-0941 or combination (combination compared to single agent PI3K inhibitor)
[5] = tested on: HCT116 human tumour xenografts; assay: [18F]-FLT PET tumour uptake in HCT116 xenografts; type: in vivo, mice; conditions: 1 mg/kg PD 0325901, 100 mg/kg GDC-0941, alone or in combination, p.o. once daily for 2 days
Method: Before treatment and after 2 days of treatment as described above, mice bearing HCT116 human tumour xenografts (7–9 mice/group) were anaesthetised, cannulated via their tail vein and placed in the prone position on a custom-made heated bed, which held three mice at once, within a MOSAIC PET scanner (Philips, Eindhoven, NL). [^18F]-FLT was obtained from PETNET (PETNET, Nottingham, UK), and radioactivity levels were measured using a Capintec well counter (Capintec, NJ, USA). Approximately 10 MBq of [^18F]-FLT was administered intravenously and a 1 hour dynamic PET scan was performed, consisting of ten 1 minute, six 5 minute and two 10 minute time frames. Mice were recovered after scanning and continued to receive treatment for the remainder of the study. Data were analysed using Imalytics software (Philips, Aachen, Germany); a 3D region of interest was drawn around the tumour and the standardised uptake value (SUV) was calculated by dividing the tissue concentration (MBq/ml) by the injected dose (MBq)/g body weight. Mean SUV values were then plotted against time, and the area under the curve (AUC) and the percentage change in the area under the curve relative to the baseline scan was calculated.

[6] = tested on: HT29 human tumour xenografts; assay: Anti-tumour activity (time to RTV3/RTV4) in HT29 human tumour xenografts; type: in vivo, mice; conditions: 1 mg/kg PD 0325901, 100 mg/kg GDC-0941, alone or in combination, p.o. once daily for 14 days
Method: as §2

[7] = Single dose PK: plasma and tumour tissue drug concentrations by HPLC in HCT116 xenograft-bearing mice; type: in vivo; conditions: for AUC: mouse, plasma, po, read-out: GDC-0941 AUC Plasma (converted); for AUC / GDC-0941 AUC Tumour: over 24 hours, mean ± SD
Method: as §1
For PK analyses, drug was extracted from 60 µl aliquots of samples by protein precipitation with 9 volumes of acetonitrile (MeCN). Samples were centrifuged at 3000g for 5 minutes at 4°C, and 500 µl of the supernatant evaporated to dryness under nitrogen gas at 30°C using a Zymark Evaporator (Caliper Life Sciences Limited, Cheshire, UK). Samples were reconstituted in 100 µl HPLC mobile phase consisting of 40% acetonitrile and 60% (v/v) 0.1% formic acid pH 4.0 (v/v), and 50 µl of the supernatant applied to a 10 cm Xterra Waters 186000436 C18 3.5 µm column (Waters, Hertfordshire, UK) fitted with an in line filter. Compounds were eluted with the above mobile phase at 1 ml/min using a Waters Millennium Chromatography system (Waters, Hertfordshire, UK). Analytes were detected by UV absorbance at 275 and 315 nm, at retention times of 6.8–7.3 and 3.9–4.3 minutes for PD 0325901 and GDC-0941, respectively. For analysis of drug in tumour tissue, tumours were homogenised in 3 volumes of PBS (w/v) and 50 µl aliquots extracted with 9 volumes of MeCN, and centrifuged, evaporated and analysed as described above.

[8] = single p.o. dose 1 mg/kg PD 0325901+10 mg/kg GDC-0941
[9] = single p.o. dose 1 mg/kg PD 0325901+100 mg/kg GDC-0941
[10] = single p.o. dose 10 mg/kg PD 0325901+100 mg/kg GDC-0941

- increase in plasma AUC with 10-fold increment in dose ([7]; GDC-0941 100 versus 10 mg/kg): 7 fold
- increase in tumour AUC following a 10-fold increase in dose ([7]; GDC-0941 100 versus 10 mg/kg): 15 fold
- AUC ([7]; 10 mg/kg, single p.o. dose 10 mg/kg GDC-0941 alone): 5.4 µM·h
- AUC ([7]; 10 mg/kg, single p.o. dose 10 mg/kg PD 0325901+10 mg/kg GDC-0941): 6.33 µM·h
- AUC ([7]; 100 mg/kg, single p.o. dose 100 mg/kg GDC-0941 alone): 39.4 µM·h
- AUC [7, 8]: 6.55 µM·h
- AUC [7, 9]: 22.6 µM·h
- AUC [7, 10]: 58.8 µM·h
- GDC-0941 AUC Tumour [7, 8]: 396±144^j µM.min
- GDC-0941 AUC Tumour [7, 9]: 3196±183^h µM.min
- GDC-0941 AUC Tumour ([7]; single p.o. dose 10 mg/kg GDC-0941 alone): 364±130^g µM.min
- GDC-0941 AUC Tumour ([7]; single p.o. dose 10 mg/kg PD 0325901+10 mg/kg GDC-0941): 124±51^g,j µM.min
- GDC-0941 AUC Tumour [7, 10]: 2649±861^i µM.min
- GDC-0941 AUC Tumour ([7]; single p.o. dose 100 mg/kg GDC-0941 alone): 5422±962^h,i µM.min
Compound: CS(=O)(=O)N1CCN(Cc2cc3nc(-c4cccc5[nH]ncc45)nc(N4CCOCC4)c3s2)CC1 [GDC-0941, 2-(1H-Indazol-4-yl)-6-(4-methanesulfonyl-piperazin-1-ylmethyl)-4-morpholin-4-yl-thieno[3,2-d]pyrimidine]
- phosphorylation of 4EBP1 in tumour (phospho-4EBP1 (Thr37/46)): reduction
- phosphorylation of AKT in tumour (phospho-Akt (Ser473)): reduction
- oral bioavailability [1]: 78%
- phosphorylation of ERK1/2 in tumour [2]: reduction
- GI50 (HCT116 cells): 1.08 µM
- Time to RTV3, Mean ± SD [3]: 15 ± 4 days
- Time to RTV3, Median ± IR [3]: 16 ± 5 days
- Time to RTV4, Mean ± SD [3]: 19 ± 5 days
- Time to RTV4, Median ± IR [3]: 18 ± 4 days
- phosphorylation of S6 in tumour [4]: reduction
- decrease in tumour [18F]-FLT uptake (SUV AUC) after 2 days versus baseline [5]: no significant difference
- Time to RTV3, Mean ± SD [6]: 11 ± 9 days
- Time to RTV3, Median ± IR [6]: 10 ± 6 days
- Time to RTV4, Mean ± SD [6]: 13 ± 9 days
- Time to RTV4, Median ± IR [6]: 10 ± 5 days
